Consider 16 compounds from patent publication US8232269B2, “Amide compounds useful in therapy” (Pfizer Inc., priority 2008, dated 2012).

Structures are written as SMILES. pKi: −log10 of the molar value.

For one test, the target named is T1, Progesterone Receptor (PR) (Homo sapiens, UniProt P06401).
T1 construct: endogenous in cells; host or cells: T47D human breast mammary carcinoma cells
T1 sequence (P06401 1-933): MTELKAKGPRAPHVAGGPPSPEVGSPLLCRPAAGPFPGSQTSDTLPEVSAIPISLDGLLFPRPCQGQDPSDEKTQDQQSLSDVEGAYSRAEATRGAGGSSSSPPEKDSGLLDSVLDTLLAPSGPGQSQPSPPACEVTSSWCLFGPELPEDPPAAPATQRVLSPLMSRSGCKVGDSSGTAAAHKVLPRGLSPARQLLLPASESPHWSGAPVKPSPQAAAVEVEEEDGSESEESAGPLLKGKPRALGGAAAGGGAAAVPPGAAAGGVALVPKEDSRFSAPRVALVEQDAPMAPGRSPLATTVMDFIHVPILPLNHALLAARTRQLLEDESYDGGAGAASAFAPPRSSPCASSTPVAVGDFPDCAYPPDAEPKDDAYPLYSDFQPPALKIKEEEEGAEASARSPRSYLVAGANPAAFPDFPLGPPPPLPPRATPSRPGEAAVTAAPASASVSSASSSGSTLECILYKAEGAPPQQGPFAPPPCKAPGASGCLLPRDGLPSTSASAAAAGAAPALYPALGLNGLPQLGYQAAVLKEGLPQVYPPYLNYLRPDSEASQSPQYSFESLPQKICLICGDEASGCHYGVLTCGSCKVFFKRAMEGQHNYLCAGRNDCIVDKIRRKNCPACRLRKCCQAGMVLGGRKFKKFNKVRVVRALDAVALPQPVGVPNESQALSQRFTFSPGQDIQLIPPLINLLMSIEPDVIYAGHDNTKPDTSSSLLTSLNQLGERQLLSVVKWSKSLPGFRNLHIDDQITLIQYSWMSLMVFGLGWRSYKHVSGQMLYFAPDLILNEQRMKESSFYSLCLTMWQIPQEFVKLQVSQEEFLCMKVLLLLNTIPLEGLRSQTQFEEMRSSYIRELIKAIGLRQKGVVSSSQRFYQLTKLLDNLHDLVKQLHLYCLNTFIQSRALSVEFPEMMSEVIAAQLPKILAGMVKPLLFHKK
In words: In vitro functional assay for progesterone receptor (PR) antagonists: inhibition of progesterone-induced alkaline phosphatase expression in T47D cells. As to conditions: antagonist format, 5 nM progesterone, Ki calculated from IC50 with the Cheng-Prusoff equation. Format: cell-based. An outline of the steps:
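Antagonist format: T47D cells (8750/well, phenol red-free DMEM + 5% CS-FCS) given half-log compound dilutions plus 5 nM progesterone (final), incubated overnight (≥16 h) at 37 °C. Alkaline phosphatase read by CSPD chemiluminescence after freeze-thaw lysis; 0.1 μM RU-486 final defines minimum.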
Broadly, the pKi is −log10 of the Ki, conventionally taken in molar units. Consider `CCc1c(-c2ccc(C#N)cc2)nn(C(C)C)c1C(=O)NCC(=O)NC` [Example 119, 3-(4-Cyanophenyl)-4-ethyl-1-isopropyl-N-[2-(methylamino)-2-oxoethyl]-1H-pyrazole-5-carboxamide], for which the pKi was < 6.84.

For `CNC(=O)CNC(=O)c1c(C2CC2)c(-c2ccc(C#N)c(C)c2)nn1C(C)C` [Example 120, 3-(4-Cyano-3-methylphenyl)-4-cyclopropyl-1-isopropyl-N-[2-(methylamino)-2-oxoethyl]-1H-pyrazole-5-carboxamide], the pKi was 8.06.

As to `Cc1cc(-c2nn(C(C)C)c(C(=O)NC3CC3)c2C#N)ccc1C#N` [Example 121], the pKi is 8.30.

As for `CNC(=O)c1c(C#N)c(-c2ccc(C#N)c(C)c2)nn1C(C)C` [Example 122], the pKi was 8.29.

For `Cc1cc(-c2nn(C(C)C)c(C(=O)NC(C)C)c2C#N)ccc1C#N` [Example 123], the pKi is 8.26.

Regarding `Cc1cc(-c2nn(C(C)C)c(C(=O)NC[C@H](C)O)c2C#N)ccc1C#N` [Example 124], the pKi was 8.23.

Consider `CC(C)n1nc(-c2ccc(C#N)cc2)c(C2CC2)c1C(=O)NC1CCS(=O)(=O)C1` (centres unmarked) [Example 125], for which the pKi was 8.08.

Turning to `Cc1cc(-c2nn(C(C)C)c(C(=O)NCC(C)(C)O)c2C#N)ccc1C#N` [Example 126], the pKi was 7.99.

`Cc1c(-c2ccc(C#N)cc2)nn(C2CCOC2)c1C(=O)NCC1CC1` (centres unmarked) [Example 127]: the pKi was 7.95.

As to `Cc1cc(-c2nn(C(C)C)c(C(=O)NC[C@@H](C)O)c2C#N)ccc1C#N` [Example 128], the pKi is 7.92.

With `CC(C)n1nc(-c2ccc(C#N)cc2)c(Cl)c1C(=O)NC[C@H](C)O` [Example 129], the pKi was 7.88.

On to `CCc1c(-c2ccc(C#N)cc2)nn(C(C)CC)c1C(=O)NCC(C)(C)O` (centres unmarked) [Example 130], for which the pKi was 7.83.

For the compound `CC(C)n1nc(-c2ccc(C#N)cc2)c(Cl)c1C(=O)NC1CC1` [Example 132], the pKi was 7.75.

Regarding `CC(C)n1nc(-c2ccc(C#N)cc2)c(C#N)c1C(=O)NC[C@@H](C)O` [Example 133], the pKi is 7.71.

Turning to `CC(C)n1nc(-c2ccc(C#N)cc2)c(C#N)c1C(=O)NCC(C)(C)O` [Example 134], the pKi was 7.66.

Another test relates to Brca1/p53-deficient mice.
Assay: not given
As to conditions: treatment of Brca1/p53-deficient mice; cited from earlier work.
Consider `CC#C[C@]1(O)CC[C@H]2[C@@H]3CCC4=CC(=O)CCC4=C3[C@@H](c3ccc(N(C)C)cc3)C[C@@]21C` [RU486, mifepristone], for which the “effect on mammary tumorigenesis” value is “prevented mammary tumorigenesis”.

The subject of a further test is ovarian cancer patients.
Assay: not given
Conditions: RU486 200 mg/day; ovarian cancer patients refractory to cisplatin and paclitaxel; cited from earlier work.
As to `CC#C[C@]1(O)CC[C@H]2[C@@H]3CCC4=CC(=O)CCC4=C3[C@@H](c3ccc(N(C)C)cc3)C[C@@]21C` [RU486, mifepristone], the “patients with a clinical response” value is given as 26.5%.
